Source: patent publication US11673891B2, “Imidazopyrimidine compounds and uses thereof” (Dana-Farber Cancer Institute, Inc., priority 2017, dated 2023)

Key:
human adult PBMCs = assay: TNF production by ELISA after stimulation of human adult PBMCs; format: cell-based; conditions: 33 μM, 18 hours
Experimental: Table 1. Activity of Exemplary Imidazopyrimidine Compounds on Stimulating TNF Production in PBMCs as Compared to Compound R848 Table 1 provides the activity of exemplary compounds on stimulating TNF production in PBMCs as compared to the benchmark compound R848. Specifically, TNF production was measured by ELISA after stimulation of adult PBMCs with compound 037 analog family or the compound R848 at 33 μM for 18 hours. Analogs are ranked top to bottom by median percentage TNF production (TNF %) as compared to R848 (N=3-5). The compounds have been classified in the following categories according to TNF %: high activity—class A: TNF %>15%; medium activity—class B: 1%<TNF %≤15%; low activity—class C: TNF %≤1%.
(§1) ELISAs and Multiplex-Analyte Assays. Supernatants derived from human PBMCs and DC stimulations were assayed by ELISA for TNF (ThermoFisher Scientific; Waltham, Mass., USA). Cytokine and chemokine expression profiles (e.g., IFNγ, IL-9, IL-10, IL-12 (p70), IL-13, IL-1β, IL-23, IL-27, IL-28A, IL-33, IL-6, MIP-3α/CCL20, and TNF) in cell culture supernatants were measured using a customized Milliplex® Human Th17 Magnetic Bead Panel according to the manufacturer's instructions (Millipore, Chicago, Ill., USA). Assays were read and analyzed on the Luminex® 100/200™ System and xPOTENT® software (Luminex, Austin, Tex.). A minimum threshold was set at the minimum detectable concentration for each individual assay, defined as three standard deviations above the mean background.
PBMCs were isolated from blood using a Ficoll density gradient. PBMCs either used fresh or were stored at 5×10^7 cells per vial in 1 mL RPMI containing 20% autologous plasma and 10% DMSO at −80° C. until use. Stimulation plates were prepared by transferring 0.66 μl of DMSO-dissolved compounds (10 mM) to each well of a round bottom 96-well plate. PBMCs isolated from human adult donors were resuspended at a concentration of 10^5 cells/200 μl of RPMI supplemented with 10% of platelet-poor plasma. 200 μl of the cell suspension were transferred to each well resulting in a final compound concentration of […]. After about 18 hours of incubation (37° C., 5% CO2), plates were spun down (500×g, room temperature, 5 minutes) and supernatants were harvested for further analysis.

THP1-Lucia cells = assay: NF-kB-induced luminescence assay in THP1-Lucia cells; format: cell-based, human; conditions: in comparison to positive control R848, N=4
Experimental: THP-1 Cell Line and Culture Conditions. The THP1-Lucia™ cell line was obtained from Invivogen (San Diego, Calif.). THP1-Lucia cells, which are human monocytic cells derived from the blood of a child with leukemia, contain an NF-kB-inducible Luc reporter construct. This allows NF-kB activation to be measured by quantifying the luminescence from the secreted luciferase enzyme. THP1-Lucia cells were cultured in RPMI 1640 supplemented with 10% non-heat inactivated fetal bovine serum (FBS), 10 mM HEPES, 1.0 mM sodium pyruvate, 50 ug/ml Pen-Strep, and 100 ug/mL Normocin™. Once cultured, the cells were stored in a 37° C. incubator with 5% CO2 and a humidified atmosphere. Cells were passaged every 2-3 days and not allowed to exceed a concentration of 2.0×10^6 cells/ml media.
NF-kB-induced Luminescence Assay. THP1-Lucia cells between passage 15 and 18 and suspended in culture medium were dispensed into 384-well black clear-bottom plates (Corning 3712) at 30,000 cells/30 μl/well using a Combi liquid dispenser. […] Immediately after adding the substrate, the luminescence was read using a PerkinElmer Envision plate reader.

[1] = tested on: Human adult and elderly PBMCs; assay: Adult and elderly PBMCs stimulated with confirmed hit compounds, TNF and IL-1β by ELISA; format: cell-based; conditions: 18 hours, N=5
Experimental: (FIG. 2A) Human adult (top) and elderly (bottom) PBMCs stimulated for 18 hours with the TLR7/8 agonist R848 and 24 confirmed hit compounds from TNF AlphaLISA screen. TNF (left panels) and IL-1β (right panels) were assessed in cell-free supernatants by ELISA. Data are shown as median and interquartile range of N=5.
as §1

## CCC(C(=O)Nc1cc(-c2cn3cccnc3n2)ccc1C)c1ccccc1 (stereo not drawn) [Compound 37]
Human adult PBMCs; adult PBMCs, ELISA, median, N=3-5, unit not given (FIG. 6B/7B legends: TNF concentration in ng/ml)
  TNF (Median): 2.403
Human adult PBMCs; class according to TNF % as compared to R848, adult PBMCs
  Activity class: A (high activity—class A: TNF %>15%)
Human adult PBMCs; human adult PBMCs, ELISA
  Production of human TNF by PBMCs (in words): induces robust production of TNF-α
Human adult PBMCs; median percentage TNF production as compared to R848, adult PBMCs, N=3-5
  TNF % (Median): 69.79%
THP1-Lucia cells
  NF-κB-driven expression of luciferase in THP1 cells (in words): does not substantially activate THP1 cells
[1]
  TNF and IL-1β induction from adult and elderly PBMCs (in words): induce TNF and IL-1β from adult and elderly PBMCs
